Laboratory results from ChEMBL document CHEMBL3044947, “Isolation of an insecticidal compound oxalicine B from Penicillium sp. TAMA 71 and confirmation of its chemical structure by X-ray crystallographic analysis” (2007).
Calls of active or inactive are those of the source. No cut-off for these calls is given here.

Tests used:
[1] = test system: Frankliniella occidentalis; experiment: Antifeedant activity against Frankliniella occidentalis (western flower thrips) at 500 ppm; assay type: functional, organism-based
Plutella xylostella = experiment: Insecticidal activity against Plutella xylostella (diamondback moth) assessed as insect mortality at 500 ppm; assay type: functional, organism-based
Bemisia argentifolii = experiment: Insecticidal activity against Bemisia argentifolii assessed as insect mortality at 500 ppm; assay type: functional, organism-based
Myzus persicae [2] = experiment: Insecticidal activity against Myzus persicae (green peach aphid) assessed as insect mortality at 200 ppm; assay type: functional
Myzus persicae [3] = experiment: Insecticidal activity against Myzus persicae (green peach aphid) assessed as insect mortality at 100 ppm; assay type: functional
Podosphaera fuliginea = experiment: Fungicidal activity against Podosphaera fuliginea at 500 ppm; assay type: functional, organism-based
Tetranychus urticae = experiment: Miticidal activity against Tetranychus urticae (two-spotted spider mite) assessed as insect mortality at 500 ppm; assay type: functional, organism-based
Botrytis cinerea = experiment: Fungicidal activity against Botryotinia fuckeliana at 500 ppm; assay type: functional, organism-based
[4] = test system: Frankliniella occidentalis; experiment: Insecticidal activity against Frankliniella occidentalis (western flower thrips) assessed as insect mortality at 500 ppm; assay type: functional

Q: `C=C(C)[C@]1(O)CC[C@]2(C)[C@H](CC=C(C)[C@]23Oc2cc(-c4cccnc4)oc(=O)c2[C@@H]3O)[C@@]12CCC(=O)OC2` [OXALICINE B] was tested. Which Activity [1] did it give?
A: inactive

Q: And the Activity (Plutella xylostella)?
A: inactive

Q: What about the Activity (Bemisia argentifolii) of the same compound?
A: inactive

Q: And the mortality at 200 ppm (Myzus persicae [2])?
A: 87%

Q: And the mortality at 100 ppm (Myzus persicae [3])?
A: 82%

Q: And the Activity (Podosphaera fuliginea)?
A: inactive

Q: What about the Activity (Tetranychus urticae) of the same compound?
A: inactive

Q: And the Activity (Botrytis cinerea)?
A: inactive

Q: What about the mortality at 500 ppm [4] of the same compound?
A: 32%
